Inconclusive results and toxic doses are left out. Rule for the calls: active = survival T/C of 150% or more; inactive = T/C below 125% in these data.
Test system: CD2F1 mice, L1210 leukemia ip, survival T/C
Test: NCI In Vivo Anticancer Drug Screen. Data for tumor model L1210 Leukemia (intraperitoneal) in CD2F1 (CDF1) mice
Conditions: higher = longer survival
Method in brief: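 Read-out first: treated-group measurement over vehicle-control measurement, expressed as a ratio. Animals bore a transplanted tumor line and were dosed with compound or vehicle.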

[1] = endpoint: mean survival time, dose: 100.0 mg/kg/injection, schedule: Q04DX003 (ip), vehicle: saline with Tween-80
[2] = endpoint: mean survival time, dose: 100.0 mg/kg/injection, schedule: Q01DX001 (ip), vehicle: saline with Tween-80
[3] = endpoint: mean survival time, dose: 200.0 mg/kg/injection, schedule: Q01DX001 (ip), vehicle: saline with Tween-80
[4] = endpoint: mean survival time, dose: 400.0 mg/kg/injection, schedule: Q01DX001 (ip), vehicle: saline with Tween-80
[5] = endpoint: mean survival time, dose: 100.0 mg/kg/injection, schedule: Q01DX009 (ip), vehicle: saline with Tween-80
[6] = endpoint: mean survival time, dose: 200.0 mg/kg/injection, schedule: Q01DX009 (ip), vehicle: saline with Tween-80
[7] = endpoint: mean survival time, dose: 75.0 mg/kg/injection, schedule: Q01DX001 (ip), vehicle: saline
[8] = endpoint: mean survival time, dose: 150.0 mg/kg/injection, schedule: Q01DX001 (ip), vehicle: saline
[9] = endpoint: mean survival time, dose: 300.0 mg/kg/injection, schedule: Q01DX001 (ip), vehicle: saline
[10] = endpoint: mean survival time, dose: 50.0 mg/kg/injection, schedule: Q01DX009 (ip), vehicle: Klucel (hydroxypropylcellulose) (HPC)
[11] = endpoint: mean survival time, dose: 100.0 mg/kg/injection, schedule: Q01DX009 (ip), vehicle: Klucel (hydroxypropylcellulose) (HPC)
[12] = endpoint: mean survival time, dose: 200.0 mg/kg/injection, schedule: Q01DX009 (ip), vehicle: Klucel (hydroxypropylcellulose) (HPC)

Measured: T/C

CCN(CCS)Cc1ccccc1
inactive: [1] 98 % of control

NC(=O)C1CC1c1ccccc1 (stereo not drawn)
inactive: [2] 100 % of control | [3] 102 % of control | [4] 96 % of control

Cc1ccc(S(=O)(=O)/C=C(\C=C/c2ccccc2)c2ccccc2)cc1
inactive: endpoint: mean survival time, dose: 50.0 mg/kg/injection, schedule: Q01DX009 (ip), vehicle: saline with Tween-80 103 % of control | [5] 103 % of control | [6] 106 % of control

CCC(C)C(C(=O)O)C(=O)O (stereo not drawn)
inactive: [7] 100 % of control | [8] 100 % of control | [9] 102 % of control

COC1=CC(c2ccccc2[N+](=O)[O-])OC1=O (stereo not drawn)
inactive: [5] 97 % of control | [1] 96 % of control | [6] 91 % of control | endpoint: mean survival time, dose: 200.0 mg/kg/injection, schedule: Q04DX003 (ip), vehicle: saline with Tween-80 91 % of control | endpoint: mean survival time, dose: 400.0 mg/kg/injection, schedule: Q01DX009 (ip), vehicle: saline with Tween-80 91 % of control | endpoint: mean survival time, dose: 400.0 mg/kg/injection, schedule: Q04DX003 (ip), vehicle: saline with Tween-80 93 % of control

CC1(C)N=C(N)N=C(N)N1c1ccc(/C=C/C(=O)Nc2cccc(S(=O)(=O)F)c2)cc1
inactive: [2] 89 % of control | [3] 95 % of control | [4] 92 % of control

N#CCCCN1C(=O)c2ccccc2C1=O
inactive: [10] 99 % of control | [11] 97 % of control | [12] 99 % of control

O=C1N=c2cc([N+](=O)[O-])c([N+](=O)[O-])cc2=N1
inactive: [2] 97 % of control | [3] 103 % of control | [4] 98 % of control

COc1cc([N+](=O)[O-])ccc1NC=O
inactive: endpoint: mean survival time, dose: 25.0 mg/kg/injection, schedule: Q04DX002 (ip), vehicle: saline with Tween-80 103 % of control | endpoint: mean survival time, dose: 50.0 mg/kg/injection, schedule: Q04DX002 (ip), vehicle: saline with Tween-80 103 % of control | endpoint: mean survival time, dose: 100.0 mg/kg/injection, schedule: Q04DX002 (ip), vehicle: saline with Tween-80 90 % of control

CC(=O)OC1(C)CC(C)(C)N=N1 (stereo not drawn)
inactive: endpoint: mean survival time, dose: 25.0 mg/kg/injection, schedule: Q01DX009 (ip), vehicle: Klucel (hydroxypropylcellulose) (HPC) 97 % of control | [10] 99 % of control | [11] 97 % of control | [12] 97 % of control | endpoint: mean survival time, dose: 400.0 mg/kg/injection, schedule: Q01DX009 (ip), vehicle: Klucel (hydroxypropylcellulose) (HPC) 97 % of control

CCOC(=O)c1c2c(n3ccccc13)C(=O)c1ccccc1C2=O
inactive: [7] 97 % of control | [8] 103 % of control | [9] 105 % of control

CCCCP(=O)(O)O
inactive: [2] 92 % of control | [3] 100 % of control

CC1OC(n2cnc3c(NC(=O)c4ccccc4)ncnc32)C(O)C2OC12 (stereo not drawn)
inactive: endpoint: median survival time, dose: 12.5 mg/kg/injection, schedule: Q01DX005 (ip), vehicle: alkali diluted with water 106 % of control | endpoint: median survival time, dose: 25.0 mg/kg/injection, schedule: Q01DX005 (ip), vehicle: alkali diluted with water 102 % of control | endpoint: median survival time, dose: 50.0 mg/kg/injection, schedule: Q01DX005 (ip), vehicle: alkali diluted with water 108 % of control | endpoint: median survival time, dose: 100.0 mg/kg/injection, schedule: Q01DX005 (ip), vehicle: alkali diluted with water 100 % of control | endpoint: median survival time, dose: 200.0 mg/kg/injection, schedule: Q01DX005 (ip), vehicle: alkali diluted with water 101 % of control
